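Results reflect a 48-hour exposure of cells in 96-well plates to compound at five concentrations. GI50 = concentration required for 50% inhibition of growth. At the TGI there is no net growth.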
Experiments:
Assay in all cases: NCI anticancer screen, dose series, 48 h
[1] = test system: MDA-MB-435
[2] = test system: NCI-H23 lung
[3] = test system: RXF 393 renal
[4] = test system: KM12 colon
[5] = test system: T-47D breast
[6] = test system: COLO 205 colon
[7] = test system: SK-MEL-2 melanoma
[8] = test system: HS 578T breast
[9] = test system: UACC-62 melanoma
[10] = test system: IGROV1 ovarian

SMILES	TGI [1] [µM]	TGI [2] [µM]	TGI [3] [µM]	TGI [4] [µM]	TGI [5] [µM]	TGI [6] [µM]	TGI [7] [µM]	TGI [8] [µM]	TGI [9] [µM]	TGI [10] [µM]	GI50 [1] [µM]	GI50 [2] [µM]	GI50 [3] [µM]	GI50 [4] [µM]	GI50 [5] [µM]	GI50 [6] [µM]	GI50 [7] [µM]	GI50 [8] [µM]	GI50 [9] [µM]	GI50 [10] [µM]
O=[N+]([O-])c1nccn1CC(O)CN1CCCCC1 (stereo not given)	> 100	> 100	> 100	> 100	> 100	> 100	> 100	> 100	> 100	> 100	–	–	–	–	–	–	–	–	–	–
CNNC(=N\S(=O)(=O)c1cc(C)c(Cl)cc1SCc1ccccc1)/N=C/c1ccc([N+](=O)[O-])s1	> 100	> 100	> 100	> 100	> 100	–	> 100	> 100	> 100	> 100	18.5	> 100	> 100	3.03	> 100	0.776	> 100	> 100	47.9	> 100
O=C(Nc1ccc(-n2ccc3c(NC(=O)c4ccccc4)ncnc32)cc1)c1cccc(C(F)(F)F)c1	16.3	35.7	19.9	16.7	30.6	20.9	13.5	33.3	11.1	27.2	2.16	13.3	3.39	0.626	5.82	4.1	1.47	3.65	0.809	5.63
C=C/C(C)=C/C[C@]1(C)[C@H](C)[C@@H](OC(=O)CCC)[C@H](O)[C@@]23C(=C[C@H](OC)C[C@@H]12)[C@@H](OC(=O)CCC)O[C@H]3OC(C)=O	0.95	2.83	0.696	1.96	1.71	1.73	2.09	3.38	1.88	3.39	0.298	1.19	0.262	0.55	0.36	0.444	0.549	1.13	0.529	1.53
C#CCNC(=S)N/N=C(\C)c1ccccn1	> 100	> 100	4.9	> 100	> 100	> 100	> 100	> 100	4.38	> 100	3.1	0.208	0.641	0.426	0.0933	0.184	6.2	9.84	1.12	0.0522
CN(C)c1nc(=NCc2ccco2)ss1	42.3	58	16.1	> 55.7	20.1	> 68.5	> 64.8	78	> 70.5	> 100	–	–	–	–	–	–	–	–	–	–
O=c1c2cc(-c3ccccc3)sc2ncn1Cc1ccc(Cl)c(Cl)c1	> 100	44.2	48.2	6.38	> 100	> 100	57.3	45.1	28	34.9	40.6	17.3	17.1	0.32	31.8	> 100	12.2	11	13	1.93
Cn1cccc1-c1cc(-c2ccccc2)[nH]c(=O)c1C#N	> 100	> 100	> 100	> 100	> 100	> 100	> 100	> 100	> 100	> 100	> 100	> 100	> 100	> 100	> 100	> 100	> 100	> 100	95	> 100
COc1cc2ncnc(-n3ncc4cc(NC(=O)Nc5ccc(Cl)c(Cl)c5)ccc43)c2cc1OC	4.29	4.24	3.29	9.66	7.17	5.58	5.01	7.95	3.44	4.66	1.84	1.93	1.53	0.0514	2.39	2.32	2.31	2	1.7	2.05
O=C(O)/C=C\C(=O)Nc1ccccn1	> 100	> 100	> 100	> 100	> 100	> 100	> 100	> 100	> 100	> 100	–	–	–	–	–	–	–	–	–	–
CCOc1ccc2c(c1)C(=O)c1c-2n(CCCBr)c(=O)c2cc([N+](=O)[O-])ccc12	> 100	> 100	> 100	> 100	9.12	> 100	> 100	> 100	> 100	–	30.6	7.14	37.9	56	0.55	41.3	> 100	> 100	5.73	–
CCOC(=O)c1c(C)n(Cc2ccc(Cl)cc2Cl)c2c1cc1oc(=O)c(=O)n3cnc2c13	30.9	–	15.3	26	27.7	33.3	56.5	64.2	–	34	16.3	–	4.16	11.6	12.8	17	22.5	24.1	–	17.8
CCCCCN(CCCCC)CC(O)c1cc(Cl)ccc1OC (stereo not given)	21.1	20.9	7.87	21.3	26.9	18.6	14.2	33.6	25.4	15.1	8.53	5.79	2.58	7.35	11.5	5.11	3.22	12.9	11.1	3
Cc1ncc(C(=O)Nc2ccc(CN3CCN(C)CC3)c(C(F)(F)F)c2)cc1C#Cc1ccc(N)nc1	0.789	4.13	0.892	1.21	7.2	4.55	0.816	0.988	0.854	0.751	0.155	0.6	0.197	0.0135	1.08	0.239	0.212	0.17	0.153	0.118
CCN(Cc1cc(F)ccc1F)c1ccc(CO)c(Cl)c1	30	33.1	17.3	30.8	1.9	6.72	19.5	47.4	0.602	0.279	12.8	11.4	4.16	14.5	0.116	2.17	2.72	16.2	0.0877	0.0527
NS(=O)(=O)c1ccc(N=Nc2c(O)[nH]c3ccc(C(=O)NCc4ccncc4)cc23)cc1	> 25	> 25	> 25	> 25	> 25	> 25	> 25	> 25	> 25	> 25	> 25	> 25	> 25	> 25	> 25	> 25	> 25	> 25	> 25	> 25
COc1ccc(NC(=O)/C=C(C)/C=C/C=C(C)/C=C/C2=C(C)CCCC2(C)C)cc1	19.1	24.3	26.2	14.5	16.1	10.9	26.2	39.8	22.9	–	5.47	9.78	12.8	4.4	3.75	3.52	13.3	9.42	10.7	–
CCCn1cnc2c(SCC(=O)O)nc(N)nc21	> 100	> 100	> 100	> 100	> 100	> 100	> 100	> 100	> 100	> 100	–	–	–	–	–	–	–	–	–	–
[O-][N+]1(CC[N+]2([O-])CCCCC2)CCCCC1	> 100	> 100	> 100	> 100	> 100	> 100	> 100	> 100	> 100	> 100	–	–	–	–	–	–	–	–	–	–
CCn1c(-c2cc3c([nH]c4ccccc43)c(-c3cccc(O)c3)n2)n[nH]c1=S	2.94	13.2	6.5	12.4	9.12	24.3	5.81	9.17	7.35	35.5	0.0496	3.11	2.01	3.24	2.36	7.65	2.05	2.21	1.95	4.23
Cc1ccc2nc(-c3ccc(OCC(=O)N=Nc4c(O)[nH]c5ccccc45)cc3)[nH]c2c1	3.88	14.5	24.4	13.2	4.88	> 100	14.7	42.3	16.8	16.1	1.95	3.53	7.94	3.55	2.02	4.03	3.71	11.4	4.38	3.61
CCCCCCCC(=O)OCCCC1[C@]2(C)CC[C@@]3(C)C([C@H](C)CCC=C(C)C)CC[C@]3(C)C2CC[C@]12OC2(C)C (stereo not given in full)	> 100	61.7	49.3	84.1	> 100	> 100	–	> 100	78	> 100	36.6	23.1	21.3	29.6	35.7	39.7	–	40.3	17.6	34.8
CC[C@@]1(OC(=O)CN)C(=O)OCc2c1cc1n(c2=O)Cc2c-1nc1cc3c(cc1c2CCl)OCO3	4.15	0.0885	–	0.39	7.79	3.1	5.04	5.5	2.28	15.1	0.16	< 0.01	–	0.12	< 0.01	0.761	1.24	0.762	< 0.01	0.234
COC(=O)c1cc2c(cc1Cl)SC1=NN(C)S(=O)N1S2(=O)=O (stereo not given)	> 100	> 100	–	> 100	> 100	> 100	> 100	> 100	> 100	> 100	> 100	> 100	–	> 100	> 100	> 100	> 100	> 100	> 100	> 100
CN1CCN(CCOc2ccc(-c3cnc4c(-c5cccc(F)c5)cnn4c3)cc2)CC1	3.16	3.72	3.22	3.06	3.71	–	4.27	4.79	3.29	3.8	1.71	1.87	1.66	1.5	1.52	–	1.98	1.74	1.73	1.82
Cc1cc(Nc2nc(C(=O)Nc3ccccc3)nc3ccccc23)n[nH]1	> 25	–	> 25	> 25	> 25	> 25	> 25	> 25	–	> 25	9.67	–	3.66	3.68	6.61	14.4	3.57	7.68	–	4.48
c1cc(-c2nnc(SSc3ncnc4nc[nH]c34)o2)ccn1	> 100	> 100	> 100	> 100	> 100	23.8	–	> 100	> 100	–	0.497	2.73	6.59	2.61	0.467	3.3	–	2.56	2.02	–

From PubChem BioAssay (NCI)
